Test results: patent USRE47607E1, “Luciferase signal enhancing compositions” (GENE STREAM PTY LTD, priority 2006, dated 2019)
Entries after “also recorded” stand apart in the source; their conditions may differ.

How the values were obtained:
[1] = tested on: non-secreted Metridia luciferase; assay: non-secreted Metridia luciferase activity in HeLa cell lysates; format: biochemical; conditions: for light units (% of those obtained using 0.1% NP40): detergent type and concentration varied, 40 or 120 min, FIGS. 14A, 14B; for increase in activity between 30 and 120 min lysis: salt 150 mM in lysis buffer, % of light units at 30 min lysis, FIG. 26; for signal intensity: chelator in lysis buffer without salt, 30 or 120 min lysis, FIGS. 10A, 10B
Experimental: HeLa cells stably expressing either non-secreted and destabilized Gaussia or non-secreted and destabilized Metridia luciferase were plated onto 96-well plates and incubated overnight. Medium was removed and the cells lysed in 20 ul of lysis buffer per well. The lysis buffer comprised; 25 mM Tris pH 8.1; 0.1% NP40; 63.4 uM Na-Oxalate; 5% Glycerol plus the concentration and type of salt indicated in FIG. 4. Replicate samples were assayed for luciferase activity after 30 minutes following addition of the lysis buffer by injecting 60 ul of assay buffer. The assay buffer comprised 25 mM Tris pH 7.75; 2 mM Ascorbate; 24 uM Cz. Results were expressed as a % of the light units obtained in the absence of salt (see FIG. 4).
Luciferase assays were performed as described in Example 5 with either non-secreted and destabilized Gaussia luciferase or non-secreted and destabilized Metridia luciferase. Two experiments are shown as separate graphs, with results shown as relative luminescence in counts per second (CPS) (see FIGS. 5A and 5B). Within each experiment, the lysis buffer and assay buffer differed only in the amount and type of salt added as indicated. Replicate samples were analysed at 120 min after addition of the lysis buffer (LB) by injecting 60 ul of assay buffer (AB).
Luciferase assays were performed with non-secreted and destabilized Metridia luciferase as described in Example 5, except the lysis buffer contained no salt and but contained the indicated type and concentration of chelators. Replicate luciferase assay were carried out after a 30 or 120 min lysis period. Results from the 30 min time point were expressed as a % of the light units obtained in the absence of chelator (see FIG. 10A) and results from the 120 min time point were expressed as % of the light units obtained with the same lysis buffer at 30 min (see FIG. 10B).
HeLa cells expressing destabilised, non-secreted Gaussia or non-secreted Metridia luciferases were plated in equal aliquots onto 96-well plates and incubated overnight. Medium was removed and the cells lysed in 20 ul of lysis buffer. The detergent type and concentration was varied as indicated. Luciferase assays were carried out by injecting 60 ul of assay buffer comprising 25 mM Tris pH 8.1; 1 mM EDTA, 2 mM Ascorbate; 24 uM Cz Two experiments are shown, in the first the lysis buffer also contained 5% glycerol, 64 uM sodium oxalate, 150 mM NaBr, 25 mM Tris pH 8.5, 5 mM EDTA, 0.6 mM reduced glutathione, 0.4 mM oxidised glutathione, 75 mM urea (v6) and luciferase activity was assayed at 40 min. In the second experiment, the lysis buffer also contained 2 5 mM Tris pH 8.1, 63.4 uM Na-oxalate, 150 mM NaBr, 5% Glycerol and the luciferase activity was assayed at 120 min. Results were expressed as the % of the light units obtained using 0.1% NP40 (see FIGS. 14A and 14B). […]
HeLa cells expressing destabilised, non-secreted Metridia luciferase were plated in equal aliquots onto 96-well plates and incubated overnight.

[2] = tested on: non-secreted Gaussia luciferase; assay: non-secreted Gaussia luciferase activity in HeLa cell lysates; format: biochemical; conditions: for signal intensity with detergent in lysis buffer: detergent 0.1% in lysis buffer unless otherwise indicated, FIGS. 13A-C; for light units (% of those obtained using 0.1% NP40): detergent type and concentration varied, 40 or 120 min, FIGS. 14A, 14B; for stability of luciferase activity between 20 and 90 min after onset of cell lysis: salt and EDTA in lysis buffer, % of light units at 20 min lysis, FIG. 7; for light output (% of light units obtained in the absence of salt): salt in lysis buffer, assayed 40 min after lysis buffer, FIG. 3; for signal intensity: chelator type and concentration varied, 30 min lysis, FIG. 9
Experimental: HeLa cells stably expressing non-secreted and destabilized Gaussia luciferase were plated onto 96-well plates and incubated overnight. Medium was removed and the cells lysed in 30 ul of lysis buffer per well. The lysis buffer (LB) comprised; 25 mM Tris pH 7.8; 0.1% NP40; 1 mM EDTA plus NaBr at concentrations of (from left to right) 0 mM, 150 mM, 0 mM and 75 mM. Luciferase activity was assayed by injecting 30 ul of an assay buffer (AB) comprising 25 mM Tris pH 7.8; 40 uM Cz plus NaBr at concentrations of (from left to right) 0 mM, 0 mM, 150 mM and 75 mM. Thus, the final concentration of NaBr was 75 mM in all samples, except the no salt controls. Results were expressed as relative light units (RLU) (See FIG. 2).
HeLa cells stably expressing non-secreted and destabilized Gaussia luciferase were plated onto 96-well plates and incubated overnight. Medium was removed and the cells lysed in 20 ul of lysis buffer per well. The lysis buffer comprised; 25 mM Tris pH 8.1, 1 mM EDTA; 0.1% NP40; 63.4 uM Na-Oxalate; 5% Glycerol plus the concentration and type of salt indicated in FIG. 3. Luciferase activity was assayed at 40 min after addition of the lysis buffer (by injecting 60 ul of an assay buffer comprising 25 mM Tris pH 8.1; 1 mM EDTA, 2 mM Ascorbate; 26 uM Cz. Results were expressed as a % of the light units obtained in the absence of salt (see FIG. 3). […]
Luciferase assays were performed as described in Example 4. All salts were present at 150 mM in lysis buffer.
Luciferase assays were performed as described in Example 7, except using the indicated concentrations of salt and EDTA in the lysis buffer. Replicate samples were assayed for luciferase activity at 20, 30, 40 and 90 min after addition of lysis buffer. Results were expressed as a % of the light units obtained after 20 min lysis in the same lysis buffer (see FIG. 7).
Luciferase assays were performed as described in Example 8, except using lysis buffer containing 150 mM NaBr and the indicated concentration of EDTA. Two experiments are shown as separate graphs, with results shown as relative light units (RLU) (see FIGS. 8A and 8B). Within each experiment, the same assay buffer was used for all samples and the lysis buffer differed only in the amount of EDTA as indicated. Replicate samples were assayed for activity of non-secreted Gaussia luciferase at 30 or 120 min after addition of lysis buffer.
Luciferase assays were performed as described in Example 9, except using the indicated type and concentration of chelator and a 30 min lysis period.
HeLa cells expressing destabilised, non-secreted Gaussia luciferase were plated in equal aliquots onto 96-well plates and incubated overnight. Three experiments are shown as separate graphs (FIGS. 13A, 13B and 13C). Within each experiment, the same assay buffer was used for all samples and the lysis buffer differed only in the type of detergent used (0.1% in lysis buffer unless otherwise indicated).
HeLa cells expressing destabilised, non-secreted Gaussia or non-secreted Metridia luciferases were plated in equal aliquots onto 96-well plates and incubated overnight. Medium was removed and the cells lysed in 20 ul of lysis buffer. The detergent type and concentration was varied as indicated.

[3] = tested on: secreted Gaussia luciferase; assay: secreted Gaussia luciferase activity in conditioned medium of transfected HeLa cells; format: biochemical; conditions: salt in assay buffer, 26 uM Cz, pH 8.1; FIG. 1
Experimental: HeLa cells were transiently transfected with a plasmid expressing native, secreted Gaussia luciferase and 24 hrs later the conditioned medium was collected. Wells of a 96-well plate were loaded with 20 ul of conditioned medium and assayed for luciferase activity by injecting 60 ul of an assay buffer comprising 26 uM Cz; pH 8.1 plus the salt as indicated in FIG. 1. Results were expressed as a % of the light units obtained in the absence of salt (FIG. 1).

[4] = tested on: non-secreted Gaussia luciferase; assay: non-secreted Gaussia luciferase activity in HeLa cell lysates; format: biochemical; conditions: 50-100 mM urea in lysis buffer, glutathione in both buffers; FIG. 24
Firefly luciferase = Firefly luciferase (Photinus pyralis, UniProt P08659); conditions: EDTA in lysis buffer, 30 min; FIG. 12
Chain of Firefly luciferase (P08659 whole entry): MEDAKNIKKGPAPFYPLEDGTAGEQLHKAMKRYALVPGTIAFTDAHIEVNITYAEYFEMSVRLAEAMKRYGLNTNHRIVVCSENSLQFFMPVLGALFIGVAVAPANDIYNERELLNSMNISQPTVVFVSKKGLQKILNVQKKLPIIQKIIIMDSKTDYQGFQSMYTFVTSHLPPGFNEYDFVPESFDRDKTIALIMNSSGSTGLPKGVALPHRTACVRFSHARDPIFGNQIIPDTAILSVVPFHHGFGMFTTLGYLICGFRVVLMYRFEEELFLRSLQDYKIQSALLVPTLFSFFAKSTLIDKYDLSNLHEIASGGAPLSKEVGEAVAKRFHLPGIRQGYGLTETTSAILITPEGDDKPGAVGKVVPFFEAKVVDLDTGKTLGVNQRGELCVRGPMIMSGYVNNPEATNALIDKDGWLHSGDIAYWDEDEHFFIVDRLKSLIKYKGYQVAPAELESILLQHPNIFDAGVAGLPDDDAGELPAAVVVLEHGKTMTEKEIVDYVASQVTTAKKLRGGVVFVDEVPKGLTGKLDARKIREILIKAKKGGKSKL
Experimental: (§1) HeLa cells expressing Firefly or Renilla luciferases were plated into 96-well plates and incubated overnight. Medium was removed and the cells lysed in 20 ul of lysis buffer containing 25 mM Tris pH 8.1; 0.1% NP40; 63.4 uM Na-Oxalate; 5% Glycerol, 150 mM NaCl plus the concentration of EDTA in FIG. 12. Replicate samples were assayed for luciferase activity at 30 min by injecting 30 ul of Firefly assay buffer II containing Firefly substrate followed by 30 ul of Promega's “Stop and Glo” buffer containing Renilla substrate. Results are expressed as a % of the light units obtained in the absence of EDTA (see FIG. 12).

Renilla luciferase = Renilla luciferase (Renilla reniformis, UniProt P27652); conditions: EDTA in lysis buffer, 30 min; FIG. 12
Chain of Renilla luciferase (P27652 whole entry): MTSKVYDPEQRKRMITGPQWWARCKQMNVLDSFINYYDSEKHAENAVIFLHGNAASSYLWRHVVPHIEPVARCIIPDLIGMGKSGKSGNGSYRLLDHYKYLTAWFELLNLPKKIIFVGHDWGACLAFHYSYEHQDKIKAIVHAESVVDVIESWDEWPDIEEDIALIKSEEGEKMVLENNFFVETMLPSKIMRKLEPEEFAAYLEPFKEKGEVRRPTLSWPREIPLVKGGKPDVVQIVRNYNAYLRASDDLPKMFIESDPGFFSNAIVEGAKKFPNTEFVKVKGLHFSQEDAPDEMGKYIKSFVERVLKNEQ
Experimental: as §1

NP40
light units (% of those obtained using 0.1% NP40) [1]: highest signal intensity | effect of % NP40 in lysis buffer on signal strength ([2]; FIGS. 16A, 16B): signal strength declined with increasing amounts of detergent | signal intensity with detergent in lysis buffer [2]: highest signal intensity | light units (% of those obtained using 0.1% NP40) [2]: highest signal intensity

CCCCCCCCCCCCCCCC[N+](C)(C)C.[Br-] [CTAB]
effect of cationic detergent on signal intensity ([2]; data not shown, luciferase not specified, stated under Example 15): strong inhibitory effect on signal intensity

C[C@H](CCC(=O)[O-])[C@H]1CC[C@H]2[C@@H]3CC[C@@H]4C[C@H](O)CC[C@]4(C)[C@H]3C[C@H](O)[C@]12C.[Na+] [DOC]
light units (% of those obtained using 0.1% NP40) [1]: concentration-dependent inhibition on signal intensity. This effect was most evident | signal intensity with detergent in lysis buffer [2]: do not perform well | light units (% of those obtained using 0.1% NP40) [2]: concentration-dependent inhibition on signal intensity. This effect was most evident

C[C@H](CCC(=O)NCCC[N+](C)(C)CCCS(=O)(=O)[O-])[C@H]1CC[C@H]2[C@@H]3[C@H](O)C[C@@H]4C[C@H](O)CC[C@]4(C)[C@H]3C[C@H](O)[C@]12C [CHAPS]
light units (% of those obtained using 0.1% NP40) [1]: insufficient to lyse the cells; also recorded: highest activity for non-secreted Metridia luciferase | signal intensity with detergent in lysis buffer [2]: appeared not to lyse the cells at 0.1% | light units (% of those obtained using 0.1% NP40) [2]: insufficient to lyse the cells

Triton X100
light units (% of those obtained using 0.1% NP40) [1]: highest signal intensity | light units (% of those obtained using 0.1% NP40) [2]: highest signal intensity

[Br-].[Na+] [NaBr, sodium bromide]
light output (% of light units obtained in the absence of salt) [3]: higher than with either NaCl or no salt | increase in activity between 30 and 120 min lysis [1]: performed better than NaCl | light output (% of light units obtained in the absence of salt) ([1]; salt in lysis buffer, assayed 30 min after lysis buffer, FIG. 4): superior enhancement to NaCl | luciferase activity (RLU) ([2]; NaBr in lysis buffer or assay buffer, final 75 mM, FIG. 2): enhances activity of non-secreted Gaussia luciferase, especially when included in lysis buffer | stability of luciferase activity between 20 and 90 min after onset of cell lysis [2]: far more stable (and therefore more desirable) level of luciferase activity | light output (% of light units obtained in the absence of salt) [2]: superior enhancement to NaCl

O=C(O)CN(CCOCCOCCN(CC(=O)O)CC(=O)O)CC(=O)O [EGTA]
signal intensity [1]: concentration-dependent beneficial effect on signal intensity | signal intensity [2]: concentration-dependent beneficial effect on signal intensity

CCCCCCCCCCCCOS(=O)(=O)[O-].[Na+] [SDS]
light units (% of those obtained using 0.1% NP40) [1]: blocks enzymatic activity; also recorded: concentration-dependent inhibition on signal intensity. This effect was most evident | signal intensity with detergent in lysis buffer [2]: do not perform well | light units (% of those obtained using 0.1% NP40) [2]: blocks enzymatic activity; also recorded: concentration-dependent inhibition on signal intensity. This effect was most evident

NC(N)=O [urea]
increase in signal between 15 and 60 min lysis [4]: increase was less pronounced

O=C(O)CN(CC(=O)O)C1CCCCC1N(CC(=O)O)CC(=O)O (stereo not drawn) [CDTA]
signal intensity [1]: concentration-dependent beneficial effect on signal intensity

O=C(O)CN(CCN(CC(=O)O)CC(=O)O)CC(=O)O [EDTA]
light units (% of those obtained in the absence of EDTA) (Firefly luciferase): clearly decreases the activity of Firefly luciferase | light units (% of those obtained in the absence of EDTA) (Renilla luciferase): does not provide the same beneficial effect on signal intensity | signal intensity [1]: concentration-dependent beneficial effect on signal intensity | increase in activity between 30 and 120 min lysis [1]: performed considerably better | signal intensity [2]: concentration-dependent beneficial effect on signal intensity | signal intensity and stability of signal over time in lysis buffer ([2]; lysis buffer with 150 mM NaBr and varied EDTA, 30 or 120 min, FIGS. 8A, 8B): benefit of higher amounts of EDTA in terms of both signal intensity and the stability of the luciferase signal over time in lysis buffer | stability of luciferase activity between 20 and 90 min after onset of cell lysis [2]: far more stable (and therefore more desirable) level of luciferase activity

[Cl-].[Na+] [NaCl]
increase in activity between 30 and 120 min lysis [1]: more than 1200% | light output (% of light units obtained in the absence of salt) [2]: increased light output compared to no salt

N[C@@H](CCC(=O)N[C@@H](CS)C(=O)NCC(=O)O)C(=O)O [reduced glutathione]
rate at which luciferase acquires maximum activity during cell lysis; signal ([2]; total glutathione and reduced:oxidized ratio varied, 20 or 60 min, FIG. 21): somewhat reduced signal was seen at 60 minutes
